Here are results for one molecule from patent US20140370594A1, “BIOLOGICAL CONVERSION OF BIOMASS-DERIVED SUGARS TO VALUE ADDED CHEMICALS” (WISCONSIN ALUMNI RESEARCH FOUNDATION, priority 2013, published 2014).

One series deals with E. coli. In words: Growth in minimal media supplemented with GVL, aerobic (FIGS. 9-13). Format: cell-based, Escherichia coli. Conditions: GVL concentrations of about 2% (wt/vol) and less, minimal medium. On the procedure: Overnight cultures of E. coli were started from single colonies picked into LB (5 mL) and incubated at 37° C. […] with 250 rpm shaking. The overnight cultures were used to inoculate test media (2 mL) to an OD600 (optical density at 600 nm) of 0.01. These cultures were then incubated as described below. The final OD600 of each culture was measured after 24 hours of incubation.
(§1) Test media for E. coli and P. putida were made using MOPS minimal salts and either varying the weight percent of NaCl and GVL or varying dilutions of the aqueous product stream in water. L. casei test media were made using Chemically Defined Media for L. casei and yeast aerobic test media were made with Yeast Nitrogen Base (6.7 g/L; Difco, a wholly owned subsidiary of Becton Dickinson and Company, Franklin Lakes, N.J.). Yeast anaerobic media were made with Yeast Nitrogen Base and supplemented with Tween 80 (0.4 wt %) and amino acids (50 mg/L).
(§2) The next step was to investigate the sensitivity of various microorganisms to salt concentration and GVL concentration. This was accomplished by measuring the growth of E. coli and yeasts in minimal media supplemented with known concentrations of GVL or NaCl under aerobic conditions. The results are depicted in FIGS. 9 through 13. FIG. 9 depicts the growth characteristics of E. coli TY05 in response to increasing concentrations of GVL. […]

In a further series the test system is yeast. Described as above. Format: cell-based. The settings on record: GVL concentrations of about 2% (wt/vol) and less, minimal medium. How it is done:
Yeast cultures were picked from single colonies and grown aerobically overnight in rich YPD broth (5 mL) (Sigma-Aldrich, St. Louis, Mo.) at 30° C. and 250 rpm. The yeast tested were Saccharomyces cerevisiae PE2 (Lallemand, Inc., Montreal, Quebec, Canada; see also Silva-Filho E A, Melo H F, Antunes D F, Santos S K B, Resende A M, Simões D A, Morais M A Jr, “Isolation by genetic and physiological characteristics of a fuel-ethanol fermentative Saccharomyces cerevisiae strain with potential for genetic manipulation,” J Ind Microbiol Biotechnol 2005, 32:481-486), Spathaspora passalidarum NN245 (ARS Culture Collection, NRRL Y-50740), Scheffersomyces stipitis 7124 (ATCC® 58376), and Scheffersomyces stipitis 6054 (ATCC® 58785).
For the aerobic test media growth experiments, an overnight culture was used to inoculate test media (2 mL) to an OD600 of 0.01. The test cultures were then incubated for 40 hours under the same conditions. A final OD600 was measured after the 40-hour incubation period.
Test media for E. coli and P. putida were made using MOPS minimal salts and either varying the weight percent of NaCl and GVL or varying dilutions of the aqueous product stream in water. […]

The subject of another series is E. coli and yeasts. Nature of the series: Sensitivity of growth to GVL versus NaCl concentration (FIGS. 9-13). Format: cell-based. Conditions: minimal media supplemented with GVL or NaCl, aerobic.
Text: as §1
as §2, with “GVL. FIG. 10 depicts the growth characteristics of S. cerevisiae in response to increasing concentrations of GVL. FIG. 11 depicts the growth characteristics of S. cerevisiae PE2 in response to increasing concentrations of NaCl. FIG. 12 depicts the growth characteristics of S. passalidarum NN245 in response to increasing NaCl concentration.” for “GVL.”

Turning to `CC1CCC(=O)O1` (stereo not drawn) [GVL, gamma-valerolactone], the “growth in the presence of GVL” value in the series with E. coli and with yeast was “very significant growth” throughout. The “impact of concentration on cell growth as compared to NaCl” value with E. coli and yeasts is “stronger impact on cell growth”.
